Source: US8846704B2, “Thiopyrimidine-based compounds and uses thereof” (YM Biosciences Austraila Pty Ltd, priority 2007, dated 2014)

How the values were obtained:
Format in all cases: biochemical
Blk(m) = molecular target: T1, Blk(m) (Mus musculus, UniProt P16277); assay: Upstate KinaseProfiler enzyme assay, Blk; settings: 500 nM compound; read-out: Percent inhibition at 500 nM Blk(m)
T1 construct: purchased Upstate Biotechnology (Dundee, UK), KinaseProfiler service
Summary of the method: (§1)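 Outsourced biochemical kinase assays; enzyme stocks at 10× working concentration in MOPS/EDTA/β-mercaptoethanol/Brij-35/glycerol/BSA buffer, pH 7.0.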

Bmx(h) = molecular target: T2, Bmx(h) (Homo sapiens, UniProt P51813); assay: Upstate KinaseProfiler enzyme assay, Bmx; settings: 500 nM compound; read-out: Percent inhibition at 500 nM Bmx(h)
T2 construct: purchased Upstate Biotechnology (Dundee, UK), KinaseProfiler service
T2 sequence (P51813 1-675): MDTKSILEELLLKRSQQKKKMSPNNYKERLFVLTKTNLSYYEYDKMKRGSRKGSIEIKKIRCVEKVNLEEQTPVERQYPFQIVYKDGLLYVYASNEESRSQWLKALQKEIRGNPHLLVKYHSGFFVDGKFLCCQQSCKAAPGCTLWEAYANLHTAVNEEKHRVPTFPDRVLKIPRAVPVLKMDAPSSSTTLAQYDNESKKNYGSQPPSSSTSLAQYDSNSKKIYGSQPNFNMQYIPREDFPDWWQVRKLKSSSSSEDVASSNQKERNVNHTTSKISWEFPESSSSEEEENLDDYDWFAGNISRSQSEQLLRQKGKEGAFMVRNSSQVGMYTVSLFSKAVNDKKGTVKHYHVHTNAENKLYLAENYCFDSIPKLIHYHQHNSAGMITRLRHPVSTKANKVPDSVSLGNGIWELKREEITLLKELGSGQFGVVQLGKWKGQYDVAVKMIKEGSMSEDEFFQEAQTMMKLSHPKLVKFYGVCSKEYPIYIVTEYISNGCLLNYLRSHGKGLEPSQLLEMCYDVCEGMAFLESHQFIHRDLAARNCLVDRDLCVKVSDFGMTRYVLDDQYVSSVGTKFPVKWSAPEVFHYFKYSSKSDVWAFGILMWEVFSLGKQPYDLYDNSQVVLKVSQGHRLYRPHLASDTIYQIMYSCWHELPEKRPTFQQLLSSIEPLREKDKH
Procedure: Further enzyme assays were conducted at Upstate Biotechnology (Dundee, UK) in the KinaseProfiler™ Assay system.
The general protocol is as follows. All kinases are pre-diluted to a 10× working concentration prior to addition into the assay. The composition of the dilution buffer for the kinases is 20 mM MOPS pH 7.0, 1 mM EDTA, 0.1% β-mercaptoethanol, 0.01% Brij-35, 5% glycerol, 1 mg/ml BSA. All substrates are dissolved and diluted to working stocks in de-ionised water.

Flt 1(h) = molecular target: T3, Flt 1(h) (Homo sapiens, UniProt P17948); assay: Upstate KinaseProfiler enzyme assay, Flt 1; settings: 500 nM compound; read-out: Percent inhibition at 500 nM Flt 1(h)
T3 construct: purchased Upstate Biotechnology (Dundee, UK), KinaseProfiler service
T3 sequence (P17948 27-1338): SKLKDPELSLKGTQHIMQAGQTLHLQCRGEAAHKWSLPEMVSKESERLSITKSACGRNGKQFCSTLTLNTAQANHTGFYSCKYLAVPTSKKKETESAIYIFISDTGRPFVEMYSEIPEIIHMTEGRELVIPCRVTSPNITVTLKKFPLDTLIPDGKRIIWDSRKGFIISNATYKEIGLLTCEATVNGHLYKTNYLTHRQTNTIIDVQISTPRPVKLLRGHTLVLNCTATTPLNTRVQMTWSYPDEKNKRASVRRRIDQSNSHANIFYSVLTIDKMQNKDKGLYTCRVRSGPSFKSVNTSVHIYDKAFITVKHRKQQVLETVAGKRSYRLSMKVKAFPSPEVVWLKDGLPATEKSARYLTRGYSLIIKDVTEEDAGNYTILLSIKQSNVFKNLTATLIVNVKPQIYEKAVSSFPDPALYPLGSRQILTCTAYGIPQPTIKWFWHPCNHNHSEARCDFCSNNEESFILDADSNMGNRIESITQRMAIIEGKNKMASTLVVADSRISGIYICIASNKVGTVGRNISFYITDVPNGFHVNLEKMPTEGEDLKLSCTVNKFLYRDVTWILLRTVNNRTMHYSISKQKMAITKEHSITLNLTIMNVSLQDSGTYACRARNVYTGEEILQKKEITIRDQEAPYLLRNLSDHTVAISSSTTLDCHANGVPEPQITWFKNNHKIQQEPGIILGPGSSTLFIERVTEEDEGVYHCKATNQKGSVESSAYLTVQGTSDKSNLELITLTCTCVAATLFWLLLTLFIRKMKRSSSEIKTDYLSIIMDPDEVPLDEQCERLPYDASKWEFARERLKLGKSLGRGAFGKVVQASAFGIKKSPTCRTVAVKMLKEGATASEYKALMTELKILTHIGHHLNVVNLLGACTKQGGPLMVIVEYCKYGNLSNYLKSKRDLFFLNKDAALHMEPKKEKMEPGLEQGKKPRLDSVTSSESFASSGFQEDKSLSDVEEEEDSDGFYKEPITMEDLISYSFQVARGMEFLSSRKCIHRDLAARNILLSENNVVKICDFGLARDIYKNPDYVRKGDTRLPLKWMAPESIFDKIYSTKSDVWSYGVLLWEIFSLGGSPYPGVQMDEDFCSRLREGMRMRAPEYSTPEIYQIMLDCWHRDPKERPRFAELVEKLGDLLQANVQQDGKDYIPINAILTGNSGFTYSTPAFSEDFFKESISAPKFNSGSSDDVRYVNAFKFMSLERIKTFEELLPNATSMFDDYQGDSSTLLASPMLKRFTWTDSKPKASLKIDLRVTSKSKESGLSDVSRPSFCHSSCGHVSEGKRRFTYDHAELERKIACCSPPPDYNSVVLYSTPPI
Summary of the method: as §1

Flt 4(h) = molecular target: T4, Flt 4(h) (Homo sapiens, UniProt P35916); assay: Upstate KinaseProfiler enzyme assay, Flt 4; settings: 500 nM compound; read-out: Percent inhibition at 500 nM Flt 4(h)
T4 construct: purchased Upstate Biotechnology (Dundee, UK), KinaseProfiler service
T4 sequence (P35916 25-1363): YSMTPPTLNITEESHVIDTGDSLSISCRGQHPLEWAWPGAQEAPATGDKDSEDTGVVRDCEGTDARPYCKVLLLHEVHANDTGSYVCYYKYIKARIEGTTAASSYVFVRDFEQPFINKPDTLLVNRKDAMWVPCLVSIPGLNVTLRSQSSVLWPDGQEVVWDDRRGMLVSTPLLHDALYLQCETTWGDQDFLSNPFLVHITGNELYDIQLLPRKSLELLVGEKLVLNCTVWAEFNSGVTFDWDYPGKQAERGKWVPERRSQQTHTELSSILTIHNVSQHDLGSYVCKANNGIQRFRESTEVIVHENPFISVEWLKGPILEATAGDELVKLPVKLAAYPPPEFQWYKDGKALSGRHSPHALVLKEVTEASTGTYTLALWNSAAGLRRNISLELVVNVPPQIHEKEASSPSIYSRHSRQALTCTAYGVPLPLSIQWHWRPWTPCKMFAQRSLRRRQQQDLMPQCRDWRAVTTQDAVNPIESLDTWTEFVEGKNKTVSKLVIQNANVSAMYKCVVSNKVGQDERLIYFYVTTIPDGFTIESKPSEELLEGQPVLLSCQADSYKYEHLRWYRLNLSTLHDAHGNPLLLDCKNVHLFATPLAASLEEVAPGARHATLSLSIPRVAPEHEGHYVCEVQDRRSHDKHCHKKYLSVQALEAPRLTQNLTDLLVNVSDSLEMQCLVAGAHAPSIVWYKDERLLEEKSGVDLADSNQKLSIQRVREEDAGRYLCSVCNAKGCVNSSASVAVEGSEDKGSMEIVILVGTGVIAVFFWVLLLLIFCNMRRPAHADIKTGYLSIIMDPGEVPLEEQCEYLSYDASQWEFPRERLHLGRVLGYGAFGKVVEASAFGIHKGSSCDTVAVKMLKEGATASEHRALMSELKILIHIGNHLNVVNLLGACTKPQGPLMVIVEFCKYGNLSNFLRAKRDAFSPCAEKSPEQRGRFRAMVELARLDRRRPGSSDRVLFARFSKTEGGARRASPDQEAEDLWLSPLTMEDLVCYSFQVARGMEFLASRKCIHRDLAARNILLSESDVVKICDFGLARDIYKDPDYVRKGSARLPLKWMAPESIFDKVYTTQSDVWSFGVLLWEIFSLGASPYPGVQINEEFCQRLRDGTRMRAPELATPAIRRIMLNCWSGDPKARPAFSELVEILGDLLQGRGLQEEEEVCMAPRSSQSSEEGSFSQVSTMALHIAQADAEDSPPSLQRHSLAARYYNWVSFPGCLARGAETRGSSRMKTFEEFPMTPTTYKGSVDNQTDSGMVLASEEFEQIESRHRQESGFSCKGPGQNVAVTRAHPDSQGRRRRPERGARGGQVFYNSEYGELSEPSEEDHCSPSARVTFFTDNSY
Summary of the method: as §1

KDR(h) = molecular target: T5, KDR(h) (Homo sapiens, UniProt P35968); assay: Upstate KinaseProfiler enzyme assay, KDR; settings: 500 nM compound; read-out: Percent inhibition at 500 nM KDR(h)
T5 construct: purchased Upstate Biotechnology (Dundee, UK), KinaseProfiler service
T5 sequence (P35968 20-1356): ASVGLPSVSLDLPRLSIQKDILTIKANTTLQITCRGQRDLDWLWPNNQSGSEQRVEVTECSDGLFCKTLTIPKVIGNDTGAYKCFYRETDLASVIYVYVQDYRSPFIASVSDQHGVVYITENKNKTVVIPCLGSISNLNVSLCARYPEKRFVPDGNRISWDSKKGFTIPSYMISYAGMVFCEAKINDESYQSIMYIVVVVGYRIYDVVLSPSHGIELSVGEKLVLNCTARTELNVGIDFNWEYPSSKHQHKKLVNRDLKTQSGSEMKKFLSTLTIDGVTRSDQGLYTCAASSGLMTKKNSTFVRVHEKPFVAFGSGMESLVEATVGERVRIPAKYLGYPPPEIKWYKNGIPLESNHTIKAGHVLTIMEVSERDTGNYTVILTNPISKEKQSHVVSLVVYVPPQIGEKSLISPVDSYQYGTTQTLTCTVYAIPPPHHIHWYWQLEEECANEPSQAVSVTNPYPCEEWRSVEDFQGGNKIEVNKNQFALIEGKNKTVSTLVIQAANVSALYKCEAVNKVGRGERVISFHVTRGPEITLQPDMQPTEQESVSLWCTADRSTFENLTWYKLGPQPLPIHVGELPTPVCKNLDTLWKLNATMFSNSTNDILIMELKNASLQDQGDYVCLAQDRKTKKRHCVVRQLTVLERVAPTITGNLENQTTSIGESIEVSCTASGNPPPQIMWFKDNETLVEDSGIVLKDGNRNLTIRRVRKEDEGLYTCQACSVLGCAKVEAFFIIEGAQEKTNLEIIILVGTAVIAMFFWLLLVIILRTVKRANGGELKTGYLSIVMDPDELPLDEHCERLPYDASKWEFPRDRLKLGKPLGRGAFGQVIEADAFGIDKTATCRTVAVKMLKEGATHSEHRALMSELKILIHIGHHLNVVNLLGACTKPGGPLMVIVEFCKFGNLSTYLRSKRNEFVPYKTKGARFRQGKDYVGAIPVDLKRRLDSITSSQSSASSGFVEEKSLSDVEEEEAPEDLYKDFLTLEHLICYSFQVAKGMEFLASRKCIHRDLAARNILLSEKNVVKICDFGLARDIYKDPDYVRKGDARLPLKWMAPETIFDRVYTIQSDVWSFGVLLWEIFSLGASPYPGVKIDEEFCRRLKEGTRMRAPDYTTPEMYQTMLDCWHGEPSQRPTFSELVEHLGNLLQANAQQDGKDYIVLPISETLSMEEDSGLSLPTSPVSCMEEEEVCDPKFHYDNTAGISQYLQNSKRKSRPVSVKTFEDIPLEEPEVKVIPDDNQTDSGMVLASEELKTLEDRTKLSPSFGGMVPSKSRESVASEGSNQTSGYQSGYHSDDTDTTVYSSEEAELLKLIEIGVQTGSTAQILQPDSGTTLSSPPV
Summary of the method: as §1

BTK(h) = molecular target: T6, BTK(h) (Homo sapiens, UniProt Q06187); assay: Upstate KinaseProfiler enzyme assay, BTK; settings: 500 nM compound; read-out: Percent inhibition at 500 nM BTK(h)
T6 construct: purchased Upstate Biotechnology (Dundee, UK), KinaseProfiler service
Summary of the method: as §1

T1 sequence (P16277 whole entry): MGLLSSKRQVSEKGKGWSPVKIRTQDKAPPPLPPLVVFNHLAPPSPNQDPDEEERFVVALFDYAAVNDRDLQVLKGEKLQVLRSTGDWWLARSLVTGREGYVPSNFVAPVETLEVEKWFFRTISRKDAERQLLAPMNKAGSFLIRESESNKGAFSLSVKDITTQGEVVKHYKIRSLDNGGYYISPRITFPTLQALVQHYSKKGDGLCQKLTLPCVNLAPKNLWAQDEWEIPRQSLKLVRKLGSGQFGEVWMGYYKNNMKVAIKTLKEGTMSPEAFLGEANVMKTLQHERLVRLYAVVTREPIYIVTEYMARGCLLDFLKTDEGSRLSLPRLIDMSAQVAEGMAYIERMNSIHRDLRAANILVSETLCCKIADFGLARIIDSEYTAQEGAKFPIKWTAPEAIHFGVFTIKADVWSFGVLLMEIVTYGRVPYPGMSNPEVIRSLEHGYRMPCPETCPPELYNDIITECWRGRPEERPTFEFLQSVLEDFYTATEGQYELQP

SMILES | inhibition at 0.5 µM (Blk(m)) [%] | inhibition at 0.5 µM (Bmx(h)) [%] | inhibition at 0.5 µM (Flt 1(h)) [%] | inhibition at 0.5 µM (Flt 4(h)) [%] | inhibition at 0.5 µM (KDR(h)) [%] | inhibition at 0.5 µM (BTK(h)) [%]
C=CC(=O)Nc1ccc(Sc2ccnc(Nc3cccc(S(N)(=O)=O)c3)n2)cc1 [Compound 364, N-(4-(2-(3-sulfamoylphenylao)pyrimidin-4-ylthio)phenyl)acrylamide] | 81 | 73 | 97 | 99 | 96 | 
C=CC(=O)Nc1cccc(Sc2ccnc(Nc3ccc(OC)cc3)n2)c1 [Compound 120, N-(3-(2-(4-methoxyphenylao)pyrimidin-4-ylthio)phenyl)acrylamide] | 100 | 100 |  |  | 100 | 100
C=CC(=O)Nc1ccc(Sc2ccnc(Nc3ccc(N4CCOCC4)cc3)n2)c(Cl)c1C [Compound 161, N-(3-chloro-2-methyl-4-(2-(4-morpholinophenylao)pyrimidin-4-ylthio)phenyl)acrylamide] | 100 | 100 |  |  | 100 | 100
C=CC(=O)Nc1ccc(Sc2ccnc(Nc3ccc(OC)c(O)c3)n2)cc1 [Compound 97] | 100 | 100 |  |  | 100 | 100
C=CC(=O)Nc1ccc(Sc2ccnc(Nc3ccc(F)c(C#N)c3)n2)cc1 [Compound 354, N-(4-(2-(3-cyano-4-fluorophenylao)pyrimidin-4-ylthio)phenyl)acrylamide] | 100 | 100 |  |  | 100 | 100
C=CC(=O)Nc1ccc(Sc2ccnc(Nc3ccccc3)n2)cc1 [Compound 350, N-(4-(2-(phenylao)pyrimidin-4-ylthio)phenyl)acrylamide] | 100 | 100 |  |  | 100 | 100
Cc1cnc(Nc2ccc(N3CCOCC3)cc2)nc1Sc1ccc(N)cc1 [Compound 126, 4-(4-aophenylthio)-5-methyl-N-(4-morpholinophenyl)pyrimidin-2-ae] | 43 | 78 | 93 | 99 | 95 | 
C=CC(=O)Nc1ccc(Sc2ccnc(Nc3ccc(N4CCC(N5CCCC5)CC4)cc3)n2)cc1 [Compound 87, N-(4-(2-(4-(4-(pyrrolidin-1-yl)piperidin-1-yl)phenylao)pyrimidin-4-ylthio)phenyl)acrylamide] | 100 | 100 |  |  | 100 | 100
C=CC(=O)Nc1ccc(Sc2nc(Nc3ccc(N4CCOCC4)cc3)ncc2-c2ccccc2)cc1 [Compound 307, N-(4-(2-(4-morpholinophenylao)-5-phenylpyrimidin-4-ylthio)phenyl)acrylamide] | 0 | 29 | 19 | 93 | 72 | 
C=CC(=O)Nc1ccc(Sc2ccnc(Nc3ccc(S(N)(=O)=O)cc3)n2)cc1 [Compound 352, N-(4-(2-(4-sulfamoylphenylao)pyrimidin-4-ylthio)phenyl)acrylamide] | 100 | 100 |  |  | 100 | 100
C=CC(=O)Nc1ccc(Sc2ccnc(Nc3ccc(Cl)cc3)n2)cc1 [Compound 353, N-(4-(2-(4-chlorophenylao)pyrimidin-4-ylthio)phenyl)acrylamide] | 100 | 100 |  |  | 100 | 100
C=CC(=O)Nc1ccc(Sc2ccnc(Nc3cccc(C#N)c3)n2)cc1 [Compound 118, N-(4-(2-(3-cyanophenylao)pyrimidin-4-ylthio)phenyl)acrylamide] | 100 | 100 |  |  | 100 | 100
CC#CC(=O)Nc1ccc(Sc2nc(Nc3ccc(N4CCOCC4)cc3)ncc2C)cc1 [Compound 125, N-(4-(5-methyl-2-(4-morpholinophenylao)pyrimidin-4-ylthio)phenyl)but-2-ynamide] | 100 | 100 |  |  | 100 | 100
C=CC(=O)Nc1ccc(Sc2nc(Nc3ccc(N4CCC(C(=O)OCC)CC4)cc3)ncc2C)cc1 [Compound 292, ethyl 1-(4-(4-(4-acrylamidophenylthio)-5-methylpyrimidin-2-ylao)phenyl)piperidine-4-carboxylate] | 10 | 59 | 67 | 100 | 96 | 3
C=CC(=O)Nc1ccc(Sc2ccnc(Nc3ccc(N4CCS(=O)(=O)CC4)cc3)n2)cc1 [Compound 99, N-{4-[(2-{[4-(1,1-dioxo-1λ^6,4-thiomorpholin-4-yl)phenyl]ao}pyrimidin-4-yl)sulfanyl]phenyl}prop-2-enamide] | 100 | 100 |  |  | 100 | 100
C=CC(=O)Nc1ccc(Sc2ccnc(Nc3cccc(C(=O)OC)c3)n2)cc1 [Compound 356, methyl 3-(4-(4-acrylamidophenylthio)pyrimidin-2-ylao)benzoate] | 100 | 100 |  |  | 100 | 100
C=CC(=O)Nc1ccc(Sc2ccnc(Nc3ccc(C#N)cc3)n2)cc1 [Compound 131, N-(4-(2-(4-cyanophenylao)pyrimidin-4-ylthio)phenyl)acrylamide] | 100 | 100 |  |  | 100 | 100
C=CC(=O)Nc1ccc(Sc2ccnc(Nc3ccc(C(=O)OC)cc3)n2)cc1 [Compound 357, methyl 4-(4-(4-acrylamidophenylthio)pyrimidin-2-ylao)benzoate] | 48 | 48 | 76 | 99 | 95 | 
CC#CC(=O)Nc1ccc(Sc2ccnc(Nc3ccc(N4CCOCC4)cc3)n2)cc1 [Compound 104, N-(4-(2-(4-morpholinophenylao)pyrimidin-4-ylthio)phenyl)but-2-ynamide] | 30 | 100 |  |  |  | 73
CC(=O)Nc1ccc(Sc2nc(Nc3ccc(N4CCOCC4)cc3)ncc2C)cc1 [Compound 135, N-(4-(5-methyl-2-(4-morpholinophenylao)pyrimidin-4-ylthio)phenyl)acetamide] | 9 | 58 | 96 | 99 | 95 | 
C=CC(=O)Nc1ccc(Sc2ccnc(Nc3ccc(OC)cc3)n2)cc1 [Compound 74, N-(4-(2-(4-methoxyphenylao)pyrimidin-4-ylthio)phenyl)acrylamide] | 100 | 100 |  |  | 100 | 100
C=CC(=O)Nc1ccc(Sc2ccnc(Nc3cccc(OC)c3)n2)cc1 [Compound 105, N-(4-(2-(3-methoxyphenylao)pyrimidin-4-ylthio)phenyl)acrylamide] | 100 | 100 |  |  | 100 | 100
C=CC(=O)Nc1cc(C)c(Sc2nc(Nc3ccc(N4CCOCC4)cc3)ncc2C)c(C)c1 [Compound 164, N-(3,5-dimethyl-4-(5-methyl-2-(4-morpholinophenylao)pyrimidin-4-ylthio)phenyl)acrylamide] | 62 | 87 | 44 | 97 | 83 | 
